Where “and” joins values, the source holds several entries; their conditions need not be identical. Identical values can stand only once.
Legend:
[1] = Molar enthalpy of transition or fusion; conditions: DSC
[2] = molar heat capacity at constant pressure; conditions: 100 kPa, Extra sensitive DSC
[3] = for Triple point temperature: DSC

CC(C)[C@@H]1CC[C@@H](C)C[C@H]1O (racemic) [DL-menthol]
Conditions	Molar enthalpy of transition or fusion, [1] [kJ/mol]	Triple point temperature, [3] [K]
Crystal 1	13.7	305.7
Metastable crystal	9.9	300.7

Conditions	molar heat capacity at constant pressure [J/K/mol]	vapor or sublimation pressure
[2], 265 K, Crystal 1	217.6	–
[2], 270 K, Crystal 1	221.3	–
[2], 270 K, Metastable crystal	217.5	–
[2], 275 K, Crystal 1	225.3	–
[2], 275 K, Metastable crystal	219.5	–
[2], 280 K, Crystal 1	229.5	–
[2], 280 K, Metastable crystal	223.1	–
[2], 285 K, Crystal 1	234.2	–
[2], 285 K, Metastable crystal	229	–
[2], 315.4 K, Liquid	377.3	–
[2], 320 K, Liquid	384.2	–
[2], 325 K, Liquid	392	–
[2], 330 K, Liquid	399.8	–
[2], 335 K, Liquid	406.9	–
[2], 340 K, Liquid	412.7	–
[2], 345 K, Liquid	418.1	–
[2], 350 K, Liquid	423.7	–
[2], 355 K, Liquid	429	–
[3], 273.65 K, Crystal 1	–	0.000259 kPa
[3], 273.66 K, Crystal 1	–	0.000261 kPa
[3], 277.57 K, Crystal 1	–	0.000442 kPa
[3], 277.59 K, Crystal 1	–	0.000442 kPa
[3], 277.6 K, Crystal 1	–	0.00044 kPa
[3], 278.16 K, Crystal 1	–	0.00048 kPa and 0.000479 kPa and 0.000477 kPa
[3], 278.28 K, Metastable crystal	–	0.000597 kPa and 0.000607 kPa
[3], 278.29 K, Metastable crystal	–	0.00061 kPa
[3], 282.56 K, Crystal 1	–	0.000853 kPa
[3], 282.57 K, Crystal 1	–	0.000852 kPa
[3], 282.59 K, Crystal 1	–	0.000854 kPa
[3], 283.12 K, Metastable crystal	–	0.00109 kPa
[3], 283.13 K, Metastable crystal	–	0.0011 kPa and 0.001093 kPa
[3], 283.15 K, Crystal 1	–	0.000922 kPa
[3], 283.16 K, Crystal 1	–	0.000921 kPa and 0.000926 kPa
[3], 287.34 K, Crystal 1	–	0.001562 kPa
[3], 287.43 K, Crystal 1	–	0.001579 kPa
[3], 287.59 K, Crystal 1	–	0.001607 kPa
[3], 288.14 K, Metastable crystal	–	0.002021 kPa and 0.00201 kPa
[3], 288.15 K, Metastable crystal	–	0.00201 kPa
[3], 288.16 K, Crystal 1	–	0.001734 kPa and 0.001736 kPa
[3], 292.79 K, Crystal 1	–	0.003041 kPa
[3], 292.84 K, Crystal 1	–	0.003054 kPa
[3], 292.9 K, Crystal 1	–	0.003078 kPa
[3], 293.14 K, Crystal 1	–	0.003173 kPa and 0.00318 kPa
[3], 293.14 K, Metastable crystal	–	0.003615 kPa and 0.003596 kPa and 0.003627 kPa
[3], 293.14 K, Metastable liquid	–	0.003971 kPa and 0.003966 kPa and 0.003969 kPa
[3], 293.15 K, Crystal 1	–	0.003183 kPa
[3], 293.54 K, Metastable liquid	–	0.00414 kPa and 0.004147 kPa
[3], 293.55 K, Metastable liquid	–	0.004144 kPa
[3], 298.13 K, Metastable liquid	–	0.006551 kPa
[3], 298.14 K, Metastable crystal	–	0.00634 kPa and 0.006361 kPa and 0.006351 kPa
[3], 298.14 K, Metastable liquid	–	0.006556 kPa and 0.00655 kPa
[3], 298.16 K, Crystal 1	–	0.005733 kPa [middle of 4 runs]
[3], 298.17 K, Crystal 1	–	0.005739 kPa
[3], 298.18 K, Crystal 1	–	0.005738 kPa
[3], 298.45 K, Metastable liquid	–	0.006763 kPa
[3], 298.46 K, Metastable liquid	–	0.00678 kPa
[3], 298.47 K, Metastable liquid	–	0.006777 kPa
[3], 303.13 K, Metastable liquid	–	0.01059 kPa
[3], 303.14 K, Crystal 1	–	0.01009 kPa and 0.0101 kPa
[3], 303.14 K, Metastable liquid	–	0.0106 kPa
[3], 303.15 K, Crystal 1	–	0.0101 kPa
[3], 303.17 K, Crystal 1	–	0.01013 kPa
[3], 303.19 K, Crystal 1	–	0.01017 kPa
[3], 303.2 K, Crystal 1	–	0.01019 kPa
[3], 303.42 K, Metastable liquid	–	0.01089 kPa and 0.01091 kPa
[3], 303.43 K, Metastable liquid	–	0.01091 kPa
[3], 308.14 K, Liquid	–	0.01683 kPa and 0.01682 kPa and 0.01681 kPa
[3], 308.42 K, Liquid	–	0.01728 kPa
[3], 308.43 K, Liquid	–	0.01728 kPa and 0.01729 kPa
[3], 313.42 K, Liquid	–	0.0268 kPa
[3], 313.43 K, Liquid	–	0.02682 kPa
[3], 313.44 K, Liquid	–	0.02686 kPa
[3], 318.39 K, Liquid	–	0.04089 kPa
[3], 318.4 K, Liquid	–	0.04092 kPa
[3], 318.42 K, Liquid	–	0.041 kPa
[3], 323.41 K, Liquid	–	0.06149 kPa and 0.06146 kPa
[3], 328.43 K, Liquid	–	0.09086 kPa
[3], 333.43 K, Liquid	–	0.1322 kPa
[3], 333.44 K, Liquid	–	0.1323 kPa
[3], 338.35 K, Liquid	–	0.188 kPa
[3], 338.36 K, Liquid	–	0.188 kPa
[3], 343.2 K, Liquid	–	0.2626 kPa
[3], 343.21 K, Liquid	–	0.2628 kPa
[3], 348.1 K, Liquid	–	0.3638 kPa
[3], 348.11 K, Liquid	–	0.3638 kPa
[3], 353.03 K, Liquid	–	0.4979 kPa
[3], 362.97 K, Liquid	–	0.9031 kPa

Source: the NIST ThermoML archive (doi:10.1016/j.jct.2018.11.004)
